This is an account of results in paper PMC6437697 (Journal of Medicinal Chemistry, 2019).

Data set [1] addresses recombinant dephosphorylated G547 IRE1α KEN domain (Homo sapiens, UniProt O75460). Kind of data set: IRE1α ATP-site binding assay (LanthaScreen tracer displacement). Conditions: read-out: IRE1a ATP site binding (LanthaScreen IC50 nM).
In data set [2] the target is recombinant G547 IRE1α KEN domain (Homo sapiens, UniProt O75460). Kind of data set: IRE1α S724 autophosphorylation assay (DELFIA). The following applies: read-out: IRE1a autophosphorylation inhibition (DELFIA IC50 nM). The data set is classed as biochemical.
Sequence of recombinant G547 IRE1α KEN domain (O75460 547-977): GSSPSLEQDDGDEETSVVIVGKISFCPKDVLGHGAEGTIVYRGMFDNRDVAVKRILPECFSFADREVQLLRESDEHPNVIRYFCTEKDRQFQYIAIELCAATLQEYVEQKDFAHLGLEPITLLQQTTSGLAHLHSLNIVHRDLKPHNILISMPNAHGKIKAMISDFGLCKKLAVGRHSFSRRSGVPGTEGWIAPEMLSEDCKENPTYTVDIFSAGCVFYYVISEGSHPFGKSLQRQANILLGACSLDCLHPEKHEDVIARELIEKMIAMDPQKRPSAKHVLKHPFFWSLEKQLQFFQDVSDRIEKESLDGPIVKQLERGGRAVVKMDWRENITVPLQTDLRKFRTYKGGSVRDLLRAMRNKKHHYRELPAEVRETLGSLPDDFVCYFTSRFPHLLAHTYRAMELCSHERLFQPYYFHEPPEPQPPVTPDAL
For data set [3], the system named is IRE1α-dependent splicing of XBP1u-luciferase mRNA reporter in HEK293 cells. Kind of data set: XBP1 luciferase fusion mRNA splicing reporter in HEK293 cells. The format is cell-based, human. Conditions: HEK293TN; read-out: XBP1 reporter cleavage in HEK293TN IC50.
The test system of data set [4] is HEK293 cells stably expressing an XBP1u-luciferase mRNA reporter. Conditions: read-out: HEK293 cytotoxicity (CellTitreBlue) IC50.

Sequence of recombinant dephosphorylated G547 IRE1α KEN domain (O75460 547-977): as above

Regarding `Fc1cc(F)cc(Cn2cc(-c3ccnc4[nH]cnc34)cn2)c1` [Control A, 7-(1-(3,5-difluorobenzyl)-1H-pyrazol-4-yl)-3H-imidazo[4,5-b]pyridine, reference compound], the IC50 (as a rule, the point on the concentration scale where inhibition reaches its midpoint) in data set [1] was 3280 nM; in data set [2] it was 3110 nM; in data set [3] it was 6.2 µM; in data set [4], above 50 µM.

For `CC(C)Nc1cc(Cl)nn2c(-c3ccc4[nH]ncc4c3)cnc12` [compound 33], the half-inhibitory concentration (IC50) in data set [1] was 736 nM; in data set [2], 276 nM.
